This is an account of results in PMC8217266 (Clinical Pharmacology and Therapeutics, 2021).

Series [1] deals with triglycerides, LDL cholesterol, and total cholesterol, biomarkers of OCT1 activity. The experiment in a line: UCSF EHR analysis: lipid levels in patients with HIV, on vs off drug. Type of series: in vivo, human.
A further series has as its target T1, human OATP2B1 (Homo sapiens, UniProt O94956).
T1 sequence (O94956 1-709): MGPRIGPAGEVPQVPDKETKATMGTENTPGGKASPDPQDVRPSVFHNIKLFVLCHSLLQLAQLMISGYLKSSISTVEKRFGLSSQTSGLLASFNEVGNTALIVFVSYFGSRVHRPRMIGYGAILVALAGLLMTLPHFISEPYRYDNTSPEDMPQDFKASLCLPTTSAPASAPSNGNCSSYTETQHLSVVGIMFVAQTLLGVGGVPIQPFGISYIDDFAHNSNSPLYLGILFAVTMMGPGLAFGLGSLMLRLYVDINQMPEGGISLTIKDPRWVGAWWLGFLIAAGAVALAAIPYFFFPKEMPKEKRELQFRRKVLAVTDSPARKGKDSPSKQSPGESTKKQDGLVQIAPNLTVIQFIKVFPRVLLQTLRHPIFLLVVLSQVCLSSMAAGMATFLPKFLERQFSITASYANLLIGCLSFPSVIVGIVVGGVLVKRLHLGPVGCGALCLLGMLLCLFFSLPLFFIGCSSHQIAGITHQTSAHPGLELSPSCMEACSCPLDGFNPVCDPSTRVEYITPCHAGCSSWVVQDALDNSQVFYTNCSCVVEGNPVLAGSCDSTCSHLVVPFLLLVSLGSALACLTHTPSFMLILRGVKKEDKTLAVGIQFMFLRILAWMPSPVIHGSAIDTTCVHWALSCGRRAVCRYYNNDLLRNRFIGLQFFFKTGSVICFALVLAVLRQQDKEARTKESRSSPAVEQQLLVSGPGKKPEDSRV
The experiment in a line: cell-based. Particulars: IC50 OATP2B1, experimental, mean ± SD; stable cells; substrate ES.

The target of another series is T2, human OCT1 (Homo sapiens, UniProt O15245).
T2 sequence (O15245 1-554): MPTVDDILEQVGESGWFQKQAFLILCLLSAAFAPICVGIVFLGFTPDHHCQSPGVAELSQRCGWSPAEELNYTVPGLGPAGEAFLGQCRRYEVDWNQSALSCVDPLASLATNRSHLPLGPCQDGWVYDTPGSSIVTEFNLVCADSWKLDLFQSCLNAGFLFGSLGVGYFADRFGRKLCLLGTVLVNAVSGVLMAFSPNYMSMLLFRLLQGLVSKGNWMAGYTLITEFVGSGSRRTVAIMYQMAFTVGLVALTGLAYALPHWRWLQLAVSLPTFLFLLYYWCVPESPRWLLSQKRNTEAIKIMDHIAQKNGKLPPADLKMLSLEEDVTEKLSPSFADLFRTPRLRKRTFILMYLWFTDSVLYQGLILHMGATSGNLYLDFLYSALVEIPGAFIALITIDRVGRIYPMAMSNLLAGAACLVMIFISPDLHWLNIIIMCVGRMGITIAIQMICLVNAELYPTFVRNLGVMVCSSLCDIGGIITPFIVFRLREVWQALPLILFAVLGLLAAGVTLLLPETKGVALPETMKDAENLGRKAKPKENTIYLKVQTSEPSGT
Particulars: for Iu,in,max/IC50 OCT1: human.

Another series addresses T3, human OATP1B3 (Homo sapiens, UniProt Q9NPD5).
T3 sequence (Q9NPD5 1-702): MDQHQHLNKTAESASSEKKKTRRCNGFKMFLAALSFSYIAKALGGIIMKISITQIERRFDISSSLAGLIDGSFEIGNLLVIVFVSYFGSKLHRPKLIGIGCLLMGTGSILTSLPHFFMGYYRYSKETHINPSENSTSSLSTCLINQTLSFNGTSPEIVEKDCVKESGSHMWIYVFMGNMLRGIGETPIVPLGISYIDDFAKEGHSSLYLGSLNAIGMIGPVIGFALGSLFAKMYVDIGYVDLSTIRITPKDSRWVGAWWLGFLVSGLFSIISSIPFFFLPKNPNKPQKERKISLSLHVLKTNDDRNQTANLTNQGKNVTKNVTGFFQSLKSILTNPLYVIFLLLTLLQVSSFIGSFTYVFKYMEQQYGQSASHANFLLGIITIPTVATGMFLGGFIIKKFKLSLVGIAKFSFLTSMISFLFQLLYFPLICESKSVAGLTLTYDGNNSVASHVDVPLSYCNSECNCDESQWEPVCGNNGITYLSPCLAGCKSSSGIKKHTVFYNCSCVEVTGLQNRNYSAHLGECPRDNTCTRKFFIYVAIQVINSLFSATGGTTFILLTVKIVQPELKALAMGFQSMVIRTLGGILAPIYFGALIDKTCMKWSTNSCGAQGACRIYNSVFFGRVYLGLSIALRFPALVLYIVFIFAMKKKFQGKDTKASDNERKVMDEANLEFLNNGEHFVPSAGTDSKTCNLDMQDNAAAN

The next series deals with T4, human OCT2 (Homo sapiens, UniProt O15244).
T4 sequence (O15244 1-555): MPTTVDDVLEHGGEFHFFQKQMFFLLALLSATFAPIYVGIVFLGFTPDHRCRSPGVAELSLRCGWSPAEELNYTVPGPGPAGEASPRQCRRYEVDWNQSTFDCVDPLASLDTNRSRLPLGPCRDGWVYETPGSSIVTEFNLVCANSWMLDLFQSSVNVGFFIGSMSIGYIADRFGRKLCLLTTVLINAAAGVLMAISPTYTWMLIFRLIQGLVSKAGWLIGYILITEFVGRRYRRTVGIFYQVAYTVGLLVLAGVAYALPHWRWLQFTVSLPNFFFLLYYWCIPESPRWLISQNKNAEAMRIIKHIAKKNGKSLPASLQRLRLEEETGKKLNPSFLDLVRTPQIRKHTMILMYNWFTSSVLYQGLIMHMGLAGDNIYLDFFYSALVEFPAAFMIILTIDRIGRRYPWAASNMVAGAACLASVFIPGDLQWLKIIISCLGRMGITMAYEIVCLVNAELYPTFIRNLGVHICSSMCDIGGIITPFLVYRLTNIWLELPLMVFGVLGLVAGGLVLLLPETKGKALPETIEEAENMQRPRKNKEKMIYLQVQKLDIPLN

The next series deals with human MATE2 (Homo sapiens, UniProt Q86VL8).
The test system of series [2] is uric acid, a biomarker of BCRP activity. As to the kind of experiment: UCSF EHR analysis: serum/plasma uric acid, on vs off drug. Type of series: in vivo, human.

human MATE2, sequence (Q86VL8 1-566 isoform Q86VL8-3): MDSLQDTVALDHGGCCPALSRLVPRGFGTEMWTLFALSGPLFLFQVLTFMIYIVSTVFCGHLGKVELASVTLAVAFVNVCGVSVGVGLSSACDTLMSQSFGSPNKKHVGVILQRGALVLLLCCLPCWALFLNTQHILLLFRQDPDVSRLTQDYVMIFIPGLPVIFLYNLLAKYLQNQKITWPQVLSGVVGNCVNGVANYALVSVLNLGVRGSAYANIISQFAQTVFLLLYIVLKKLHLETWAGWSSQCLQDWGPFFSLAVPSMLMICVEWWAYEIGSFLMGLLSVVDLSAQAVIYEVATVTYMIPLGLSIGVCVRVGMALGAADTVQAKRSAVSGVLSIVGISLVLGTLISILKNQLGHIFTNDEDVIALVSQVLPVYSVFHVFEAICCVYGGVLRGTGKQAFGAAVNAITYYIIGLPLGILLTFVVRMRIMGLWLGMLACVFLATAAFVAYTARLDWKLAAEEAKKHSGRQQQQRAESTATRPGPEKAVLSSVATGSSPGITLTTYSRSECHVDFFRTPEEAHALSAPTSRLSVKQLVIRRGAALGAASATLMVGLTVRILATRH

Regarding `CC(C)CN(C[C@@H](O)[C@H](Cc1ccccc1)NC(=O)O[C@H]1CO[C@H]2OCC[C@H]21)S(=O)(=O)c1ccc(N)cc1` [Darunavir], the “LDL cholesterol, Median On drug” value in series [1] (matched 1:2, off drug 95) was 100/95 mg/dL. Moreover, the “Total cholesterol, Median On drug” value in series [1] (matched 1:2, off drug 166) is given as 180/166 mg/dL. For the same compound, the “LDL cholesterol, Average On drug” value in series [1] (matched 1:2, on n=357, off n=714, off drug 98.7, P 0.0077) is given as 105/98.7 mg/dL. For the same compound, the “Total cholesterol, Average On drug” value in series [1] (matched 1:2, on n=364, off n=728, off drug 170, P 5.18E-06) was 183/170 mg/dL. Also, in series [1] (matched 1:2, on n=386, off n=772, off drug 160, P 0.00022), the “Triglyceride, Average On drug” value was 180/160 mg/dL. This compound also had an IC50 on human OATP2B1 of 30.6 ± 7.7 µM.
In turn, `CCC(CC)COC(=O)[C@H](C)N[P@](=O)(OC[C@H]1O[C@@](C#N)(c2ccc3c(N)ncnn23)[C@H](O)[C@@H]1O)Oc1ccccc1` [Remdesivir] yielded an IC50 on human OATP2B1 of 3.5 ± 0.4 µM.
As to `N#CC[C@H](C1CCCC1)n1cc(-c2ncnc3[nH]ccc23)cn1` [Ruxolitinib], the “Iu,in,max/IC50 OCT1” value on human OCT1 is listed as 0.02. Besides, the “Iu,in,max/IC50 OATP1B3” value on human OATP1B3 is 0.008. At human OATP2B1, this compound registered an IC50 of 17.4 ± 8.6 µM. Besides, the “Cu,max/IC50 OCT2” value on human OCT2 was determined as 0.003.
Turning to `CCCc1nn(C)c2c(=O)[nH]c(-c3cc(S(=O)(=O)N4CCN(C)CC4)ccc3OCC)nc12` [Sildenafil], at human MATE2, the “Cu,max/IC50 MATE2-K” value was found to be 0.003. This compound came in with an IC50 at human OATP2B1 of 39 ± 12.8 µM. The “Median SUA On drug” value is recorded as 6.7/5.7 mg/dL in series [2] (criteria 1, off drug 5.7); 6.9/5.6 mg/dL in series [2] (criteria 2, off drug 5.6); 6.6/5.7 mg/dL in series [2] (main analysis, matched 1:5, off drug 5.7, P <2.2E-16).
For the compound `CCOC(=O)c1c(CSc2ccccc2)n(C)c2cc(Br)c(O)c(CN(C)C)c12` [Umifenovir (Arbidol), Umifenovir], on human OCT1, the “OCT1 inhibited more potently relative to OCT2” value was at least 10 fold and the “Iu,in,max/IC50 OCT1” value was 3.93. For the same compound, at human MATE2, the “Cu,max/IC50 MATE2-K” value amounted to 0.02. For the same compound, the “Iu,in,max/IC50 OATP1B3” value at human OATP1B3 stood at 0.73. For the same compound, on human OATP2B1, the IC50 turned out to be 3.5 ± 1.2 µM. Further, the “Cu,max/IC50 OCT2” value at human OCT2 turned out to be 0.006.

Broadly, the IC50 is the midpoint of a concentration-inhibition curve. Low readings indicate greater potency in that assay, high ones weaker potency in that assay.
